Biological target: Growth hormone secretagogue receptor type 1 (Homo sapiens, UniProt Q92847)
Test: Receptor Binding Studies

Growth hormone secretagogue receptor type 1, sequence (Q92847 whole entry): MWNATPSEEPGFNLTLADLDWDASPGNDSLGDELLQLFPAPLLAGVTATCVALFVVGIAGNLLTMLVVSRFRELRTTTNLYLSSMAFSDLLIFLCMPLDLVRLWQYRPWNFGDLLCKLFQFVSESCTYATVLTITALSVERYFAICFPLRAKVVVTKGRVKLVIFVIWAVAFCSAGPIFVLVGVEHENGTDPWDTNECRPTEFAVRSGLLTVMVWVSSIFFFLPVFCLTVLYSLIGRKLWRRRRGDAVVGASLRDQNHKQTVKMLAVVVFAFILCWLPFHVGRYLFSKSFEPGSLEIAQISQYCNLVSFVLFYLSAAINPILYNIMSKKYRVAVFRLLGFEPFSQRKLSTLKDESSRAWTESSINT

SMILES | EC50 [µM] | also measured
COc1ccc(Cn2c(CCc3ccccc3)nnc2[C@@H](Cc2c[nH]c3ccccc23)NC(=O)C2CNCCN2)c(OC)c1 (stereo partly drawn) [N-[(1R)-1-{4-[(2,4-dimethoxyphenyl)methyl]-5-(2-phenylethyl)-4H-1,2,4-triazol-3-yl}-2-(1H-indol-3-yl)ethyl]piperazine-2-carboxamide] | 0.0196 | –
COc1ccc(Cn2c(CCc3ccccc3)nnc2[C@@H](Cc2c[nH]c3ccccc23)NC(=O)C2CCNCC2)c(OC)c1 [N-[(1R)-1-{4-[(2,4-dimethoxyphenyl)methyl]-5-(2-phenylethyl)-4H-1,2,4-triazol-3-yl}-2-(1H-indol-3-yl)ethyl]piperidine-4-carboxamide] | 0.0061 | –
COc1ccc(Cn2c(CCc3c[nH]c4ccccc34)nnc2[C@@H](Cc2c[nH]c3ccccc23)NC(=O)C2CCCCN2)c(OC)c1 (stereo partly drawn) [N-[(1R)-1-{4-[(2,4-dimethoxyphenyl)methyl]-5-[2-(1H-indol-3-yl)ethyl]-4H-1,2,4-triazol-3-yl}-2-(1H-indol-3-yl)ethyl]piperidine-2-carboxamide] | – | Kb: 0.018 µM
CCc1ccc(Cn2c(CCc3ccccc3)nnc2[C@@H](Cc2c[nH]c3ccccc23)NC(=O)C2CNCCN2)cc1 (stereo partly drawn) [N-[(1R)-1-{4-[(4-ethylphenyl)methyl]-5-(2-phenylethyl)-4H-1,2,4-triazol-3-yl}-2-(1H-indol-3-yl)ethyl]piperazine-2-carboxamide] | 0.143 | IC50: 0.178 µM
O=C(N[C@H](Cc1c[nH]c2ccccc12)c1nnc(CCc2ccccc2)n1-c1ccccc1)C1CCNCC1 [N-[(1R)-2-(1H-indol-3-yl)-1-[4-phenyl-5-(2-phenylethyl)-4H-1,2,4-triazol-3-yl]ethyl]piperidine-4-carboxamide] | – | IC50: 0.468 µM
O=C(N[C@H](Cc1c[nH]c2ccccc12)c1nnc(CCc2ccccc2)n1Cc1ccccn1)C1CCCNC1 (stereo partly drawn) [N-[(1R)-2-(1H-indol-3-yl)-1-[5-(2-phenylethyl)-4-(pyridin-2-ylmethyl)-4H-1,2,4-triazol-3-yl]ethyl]piperidine-3-carboxamide] | – | IC50 (pH 7.3, 25 °C): > 1 µM
COc1ccc(Cn2c(CCc3ccccc3)nnc2[C@@H](Cc2c[nH]c3ccccc23)NC(=O)C2CCCCC2)cc1 [N-[(1R)-2-(1H-indol-3-yl)-1-{4-[(4-methoxyphenyl)methyl]-5-(2-phenylethyl)-4H-1,2,4-triazol-3-yl}ethyl]cyclohexanecarboxamide] | 0.39 | –
COc1ccc(Cn2c(CCc3ccccc3)nnc2[C@@H](Cc2c[nH]c3ccccc23)NC(=O)C2CCOCC2)cc1 [N-[(1R)-2-(1H-indol-3-yl)-1-{4-[(4-methoxyphenyl)methyl]-5-(2-phenylethyl)-4H-1,2,4-triazol-3-yl}ethyl]oxane-4-carboxamide] | – | IC50: 0.006 µM; Kb: 0.051 µM
COc1ccc(Cn2c(CCc3ccccc3)nnc2[C@@H](Cc2c[nH]c3ccccc23)NC(=O)C2CNCCN2)cc1 (stereo partly drawn) [N-[(1R)-2-(1H-indol-3-yl)-1-{4-[(4-methoxyphenyl)methyl]-5-(2-phenylethyl)-4H-1,2,4-triazol-3-yl}ethyl]piperazine-2-carboxamide] | 0.012 | –
COc1ccc(Cn2c(CCc3ccccc3)nnc2[C@@H](Cc2c[nH]c3ccccc23)NC(=O)C2CCNCC2)cc1 [N-[(1R)-2-(1H-indol-3-yl)-1-{4-[(4-methoxyphenyl)methyl]-5-(2-phenylethyl)-4H-1,2,4-triazol-3-yl}ethyl]piperidine-4-carboxamide] | 0.0016 | –
COc1ccc(Cn2c(CCc3c[nH]c4ccccc34)nnc2[C@@H](Cc2c[nH]c3ccccc23)NC(=O)C2CNCCN2)cc1 (stereo partly drawn) [N-[(1R)-2-(1H-indol-3-yl)-1-{5-[2-(1H-indol-3-yl)ethyl]-4-[(4-methoxyphenyl)methyl]-4H-1,2,4-triazol-3-yl}ethyl]piperazine-2-carboxamide] | 0.0087 | –

Source: BindingDB's records for doi:10.1021/jm0704550 (Cnrs, 2007)
